Results published in patent US9206128B2 (Constellation Pharmaceuticals, Inc., priority 2011, dated 2015).

How the values were obtained:
Y641N EZH2 = Y641N EZH2 (Homo sapiens, UniProt Q15910, Y641N); test: Y641N EZH2 activity inhibition assay (as EZH2 assay, reconstituted H3K27Me2 oligonucleosomes as substrate); format: biochemical; conditions: Y641N EZH2 mutant enzyme
Description: (§1) EZH2 Assay: Assays were carried out by mixing rPRC2 together with biotinylated oligonucleosome substrates in the presence of the radio-labeled enzyme co-factor, S-adenosyl-L-methionine (^3H SAM) (Perkin Elmer) and monitoring the enzymatically mediated transfer of tritiated methyl groups from ^3H SAM to histone lysine residues. The amount of resulting tritiated methyl histone product was measured by first capturing the biotinylated oligonucleosomes in streptavidin (SAV) coated FlashPlates (Perkin Elmer), followed by a wash step to remove un-reacted ^3H SAM, and then counting on a TopCount NXT 384 well plate scintillation counter (Perkin Elmer). The final assay conditions for EZH2 were as follows: 50 mM Tris Buffer pH 8.5, 1 mM DTT, 69 μM Brij-35 detergent, 5.0 mM MgCl2, 0.1 mg/mL BSA, 0.2 μM ^3H SAM, 0.2 μM biotinylated oligonucleosomes, 3.6 μM H3K27me3 peptide and 2 nM EZH2.
(§2) A 12.5 μL volume of the HMT enzyme, H3K27me3 peptide and oligonucleosome substrate in assay buffer was added to each well of the assay plate using a Multidrop Combi (ThermoFisher). Compounds were pre-incubated with the enzyme for 20 min, followed by initiation of the methyltransferase reaction by addition of 12.5 μL of 3H SAM in assay buffer (final volume=25 μL). The final concentrations of compounds ranged from a top default concentration of 80 μM down to 0.16 μM in ten 2-fold dilution steps. Reactions were carried out for 60 minutes and quenched with 20 μL per well of 1.96 mM SAH, 50 mM Tris PH 8.5, 200 mM EDTA. Stopped reactions were transferred to SAV coated Flashplates (Perkin Elmer), incubated for 120 min, washed with a plate washer, and then read on the TopCount NXT (1.0 min/well) to measure the amount of methyl histone product formed during the reaction.

EZH2 = EZH2 (Homo sapiens, UniProt Q15910); test: EZH2 activity inhibition assay (rPRC2, 3H SAM, biotinylated oligonucleosomes, FlashPlate); format: biochemical; conditions: rPRC2, 2 nM EZH2, 0.2 μM 3H SAM, top concentration 80 μM
Sequence of EZH2 (Q15910 whole entry): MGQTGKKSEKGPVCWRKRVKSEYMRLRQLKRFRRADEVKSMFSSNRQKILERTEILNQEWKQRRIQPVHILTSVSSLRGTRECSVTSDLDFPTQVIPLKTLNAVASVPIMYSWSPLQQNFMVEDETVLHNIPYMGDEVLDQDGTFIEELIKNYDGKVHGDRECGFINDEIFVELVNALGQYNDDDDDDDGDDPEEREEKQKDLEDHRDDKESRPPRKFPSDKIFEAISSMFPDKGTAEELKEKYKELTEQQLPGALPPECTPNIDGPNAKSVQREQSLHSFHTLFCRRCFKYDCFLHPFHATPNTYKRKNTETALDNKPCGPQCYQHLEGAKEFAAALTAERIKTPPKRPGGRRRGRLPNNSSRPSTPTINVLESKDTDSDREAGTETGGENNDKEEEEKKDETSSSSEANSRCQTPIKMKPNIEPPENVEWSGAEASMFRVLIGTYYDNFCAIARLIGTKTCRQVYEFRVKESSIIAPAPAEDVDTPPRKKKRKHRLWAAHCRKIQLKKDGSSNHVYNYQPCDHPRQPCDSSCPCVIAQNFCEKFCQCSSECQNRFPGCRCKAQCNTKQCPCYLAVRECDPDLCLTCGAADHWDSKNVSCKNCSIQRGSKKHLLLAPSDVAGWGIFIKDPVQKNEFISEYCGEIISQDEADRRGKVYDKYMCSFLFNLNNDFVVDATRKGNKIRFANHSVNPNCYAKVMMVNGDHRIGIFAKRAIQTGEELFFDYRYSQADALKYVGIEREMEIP
Sequence of EZH2 (O75530 whole entry partner): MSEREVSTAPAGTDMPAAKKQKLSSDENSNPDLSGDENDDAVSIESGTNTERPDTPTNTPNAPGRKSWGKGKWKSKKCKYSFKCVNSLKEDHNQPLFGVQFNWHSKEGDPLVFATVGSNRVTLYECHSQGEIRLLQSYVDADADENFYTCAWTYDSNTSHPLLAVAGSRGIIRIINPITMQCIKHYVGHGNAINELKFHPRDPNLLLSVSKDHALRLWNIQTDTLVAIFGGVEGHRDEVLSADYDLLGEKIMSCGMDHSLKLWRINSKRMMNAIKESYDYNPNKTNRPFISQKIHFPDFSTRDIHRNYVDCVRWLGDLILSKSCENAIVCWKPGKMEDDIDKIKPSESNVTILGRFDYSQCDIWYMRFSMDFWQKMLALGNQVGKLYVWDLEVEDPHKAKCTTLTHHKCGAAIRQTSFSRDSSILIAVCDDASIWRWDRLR
Sequence of EZH2 (Q15022 whole entry partner): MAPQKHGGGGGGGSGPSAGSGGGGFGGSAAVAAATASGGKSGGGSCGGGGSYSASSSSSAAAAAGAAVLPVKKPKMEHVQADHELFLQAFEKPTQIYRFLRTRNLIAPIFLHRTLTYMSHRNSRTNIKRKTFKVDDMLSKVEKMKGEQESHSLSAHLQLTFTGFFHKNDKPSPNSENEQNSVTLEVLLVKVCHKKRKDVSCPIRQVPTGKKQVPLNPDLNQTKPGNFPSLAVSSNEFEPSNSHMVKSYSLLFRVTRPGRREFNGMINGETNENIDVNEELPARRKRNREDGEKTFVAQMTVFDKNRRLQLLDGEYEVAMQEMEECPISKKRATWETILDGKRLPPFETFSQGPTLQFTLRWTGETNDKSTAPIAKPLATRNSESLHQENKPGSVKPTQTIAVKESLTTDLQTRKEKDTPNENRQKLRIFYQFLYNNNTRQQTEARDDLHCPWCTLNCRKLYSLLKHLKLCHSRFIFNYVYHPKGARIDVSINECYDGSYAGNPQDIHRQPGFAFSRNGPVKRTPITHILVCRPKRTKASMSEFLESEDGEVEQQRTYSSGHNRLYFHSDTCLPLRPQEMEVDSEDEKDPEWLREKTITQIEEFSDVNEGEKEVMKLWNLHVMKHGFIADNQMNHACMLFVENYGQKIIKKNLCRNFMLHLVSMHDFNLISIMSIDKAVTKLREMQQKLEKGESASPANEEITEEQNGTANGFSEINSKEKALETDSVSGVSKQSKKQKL
Description: as §1, with “Elmer).” for “Elmer). The final assay conditions for EZH2 were as follows: 50 mM Tris Buffer pH 8.5, 1 mM DTT, 69 μM Brij-35 detergent, 5.0 mM MgCl2, 0.1 mg/mL BSA, 0.2 μM ^3H SAM, 0.2 μM biotinylated oligonucleosomes, 3.6 μM H3K27me3 peptide and 2 nM EZH2.”
as §2, with “The final concentrations of compounds ranged from a top default concentration of 80 μM down to 0.16 μM in ten 2-fold dilution steps. Reactions were carried out for 60 minutes and quenched with 20 μL per well of 1.96 mM SAH, 50 mM Tris PH 8.5, 200 mM EDTA.” left out

Sequence of Y641N EZH2 (Q15910 whole entry Y641N): as the sequence (Q15910 whole entry) above, with Y641N counted along it
Sequence of Y641N EZH2 (O75530 whole entry partner): as the sequence (O75530 whole entry partner) above
Sequence of Y641N EZH2 (Q15022 whole entry partner): as the sequence (Q15022 whole entry partner) above

SMILES	IC50 (Y641N EZH2) [µM]	IC50 (EZH2) [µM]
Cc1cc(C)c(CNC(=O)c2ccc(C(C)N3CCCCC3)cc2)c(=O)[nH]1 (stereo not shown) [Compound I-81]	10 to 50	1 to 10
Cc1cc(C)c(CNC(=O)c2ccc(C3CCOC3)cc2)c(=O)[nH]1 (stereo not shown) [Compound I-83, N-((2-hydroxy-4,6-dimethylpyridin-3-yl)methyl)-4-(tetrahydrofuran-3-yl)benzamide]	1 to 10	< 1
Cc1cc(C)c(CNC(=O)c2ccc(C(C)OC3CCCCC3)cc2)c(=O)[nH]1 (stereo not shown) [Compound I-85, 4-(1-(cyclohexyloxy)ethyl)-N-((2-hydroxy-4,6-dimethylpyridin-3-yl)methyl)benzamide]	1 to 10	< 1
Cc1cc(C)c(CNC(=O)c2ccc(C3CCCC3)cc2)c(=O)[nH]1 [Compound I-86, 4-cyclopentyl-N-((2-hydroxy-4,6-dimethylpyridin-3-yl)methyl)benzamide]	1 to 10	< 1
Cc1cc(C)c(CNC(=O)c2ccc(C(C)N3CCCCC3)cc2C)c(=O)[nH]1 (stereo not shown) [Compound I-87, N-((2-hydroxy-4,6-dimethylpyridin-3-yl)methyl)-2-methyl-4-(1-(piperidin-1-yl)ethyl)benzamide]	1 to 10	1 to 10
Cc1cc(C)c(CNC(=O)c2ccc(C(C)N3CCCCC3=O)cc2)c(=O)[nH]1 (stereo not shown) [Compound I-88, N-((2-hydroxy-4,6-dimethylpyridin-3-yl)methyl)-4-(1-(2-oxopiperidin-1-yl)ethyl)benzamide]	> 80	1 to 10
Cc1cc(C)c(CNC(=O)c2ccc(CN3CCN(CCO)CC3)cc2)c(=O)[nH]1 [Compound I-89, N-((4,6-dimethyl-2-oxo-1,2-dihydropyridin-3-yl)methyl)-4-((4-(2-hydroxyethyl)piperazin-1-yl)methyl)benzamide]	> 80	1 to 10
Cc1cc(C)c(CNC(=O)c2ccc(C(C)COc3ccccc3)cc2)c(O)n1 (stereo not shown) [Compound I-116, N-((2-hydroxy-4,6-dimethylpyridin-3-yl)methyl)-4-(1-phenoxypropan-2-yl)benzamide]	> 80	< 1
Cc1cc(CNC(=O)c2ccc(C(C)Oc3ccccc3)cc2)c(=O)[nH]c1C (stereo not shown) [Compound I-157]	> 80	> 80
Cc1cc(C)c(CNC(=O)c2ccc([C@H](C)Oc3ccccc3C#N)cc2)c(=O)[nH]1 [Compound I-163]	< 1	< 1
Cc1cc(C)c(CNC(=O)c2ccc([C@H](C)Oc3cccc(C#N)c3)cc2)c(=O)[nH]1 [Compound I-169]	< 1	< 1
O=C(NCc1ccc(-c2ccccc2)[nH]c1=O)c1ccc(Oc2ccccc2)cc1 [Compound I-170]	> 80	> 80
O=C(NCc1cc2c([nH]c1=O)CCC2)c1ccc(Oc2ccccc2)cc1 [Compound I-178, N-((2-oxo-2,5,6,7-tetrahydro-1H-cyclopenta[b]pyridin-3-yl)methyl)-4-phenoxybenzamide]	10 to 50	10 to 50
O=C(NCc1cc2c([nH]c1=O)CCCC2)c1ccc(Oc2ccccc2)cc1 [Compound I-179]	> 80	> 50
Cc1cc(C)c(CNC(=O)c2ccc(C(C)Oc3ccccc3)nn2)c(=O)[nH]1 (stereo not shown) [Compound I-182, N-((2-hydroxy-4,6-dimethylpyridin-3-yl)methyl)-6-(1-phenoxyethyl)pyridazine-3-carboxamide]	> 80	1 to 10
Cc1cc(C)c(CNC(=O)c2ccc(C(CO)Oc3ccccc3)cc2)c(=O)[nH]1 (stereo not shown) [Compound I-183, 4-(2-hydroxy-1-phenoxyethyl)-N-((2-hydroxy-4,6-dimethylpyridin-3-yl)methyl)benzamide]	> 80	1 to 10
Cc1cc(C)c(CNC(=O)c2ccc(C(C)OC3CCOC3)cc2)c(=O)[nH]1 (stereo not shown) [Compound I-184, N-((2-hydroxy-4,6-dimethylpyridin-3-yl)methyl)-4-(1-(tetrahydrofuran-3-yloxy)ethyl)benzamide]	1 to 10	< 1
COCC(Oc1ccccc1)c1ccc(C(=O)NCc2c(C)cc(C)[nH]c2=O)cc1 (stereo not shown) [Compound I-193]	> 80	> 80
CNc1cc(C)[nH]c(=O)c1CNC(=O)c1ccc(Oc2ccccc2)cc1 [Compound I-194, N-((2-hydroxy-6-methyl-4-(methylamino)pyridin-3-yl)methyl)-4-phenoxybenzamide]	> 80	< 1
Cc1cc(N)c(CNC(=O)c2ccc(Oc3ccccc3)cc2)c(=O)[nH]1 [Compound I-196, N-((4-amino-2-hydroxy-6-methylpyridin-3-yl)methyl)-4-phenoxybenzamide]	> 80	1 to 10
Cc1cc(C)c(CNC(=O)c2c(C)cn(C(C)c3ccccc3)c(=O)c2C)c(=O)[nH]1 (stereo not shown) [Compound I-200, N-((4,6-dimethyl-2-oxo-1,2-dihydropyridin-3-yl)methyl)-3,5-dimethyl-2-oxo-1-(1-phenylethyl)-1,2-dihydropyridine-4-carboxamide]	1 to 10	< 1

Next, values leading:

IC50 (Y641N EZH2) [µM]	IC50 (EZH2) [µM]	SMILES
> 80	10 to 50	Cc1cc(C)c(CNC(=O)c2cnc(Oc3ccccc3)nc2)c(=O)[nH]1 [Compound I-79, N-((2-hydroxy-4,6-dimethylpyridin-3-yl)methyl)-2-phenoxypyrimidine-5-carboxamide]
10 to 50	1 to 10	Cc1cc(C)c(CNC(=O)c2ccc(CN3CCCCC3)cc2C)c(=O)[nH]1 [Compound I-80, N-((2-hydroxy-4,6-dimethylpyridin-3-yl)methyl)-2-methyl-4-(piperidin-1-ylmethyl)benzamide]
10 to 50	1 to 10	Cc1cc(C)c(CNC(=O)c2ccc(C3CCCO3)cc2)c(=O)[nH]1 (stereo not shown) [Compound I-84, N-((2-hydroxy-4,6-dimethylpyridin-3-yl)methyl)-4-(tetrahydrofuran-2-yl)benzamide]
1 to 10	< 1	Cc1cc(C)c(CNC(=O)c2ccc(C(C)Oc3ccncn3)cc2)c(=O)[nH]1 (stereo not shown) [Compound I-155, N-((2-hydroxy-4,6-dimethylpyridin-3-yl)methyl)-4-(1-(pyrimidin-4-yloxy)ethyl)benzamide]
> 80	> 80	Cc1c[nH]c(=O)c(CNC(=O)c2ccc(C(C)Oc3ccccc3)cc2)c1 (stereo not shown) [Compound I-156]
> 80	> 80	Cc1cc(C)c(CNC(=O)c2ccc(Oc3ccccc3)nn2)c(=O)[nH]1 [Compound I-158]
> 80	> 80	Cc1cc(C)c(CNC(=O)c2ncc(Oc3ccccc3)cn2)c(=O)[nH]1 [Compound I-159]
> 80	1 to 10	Cc1cc(C)c(CNC(=O)c2ccc([C@@H](C)Oc3ccccc3C#N)cc2)c(=O)[nH]1 [Compound I-162]
> 80	1 to 10	Cc1cc(C)c(CNC(=O)c2ccc([C@@H](C)Oc3cccc(C#N)c3)cc2)c(=O)[nH]1 [Compound I-168]
1 to 10	< 1	Cc1cc(C)c(CNC(=O)c2ccc(C(C)OC3CCOCC3)cc2)c(=O)[nH]1 (stereo not shown) [Compound I-192]
1 to 10	< 1	COc1cc(C)[nH]c(=O)c1CNC(=O)c1ccc(Oc2ccccc2)cc1 [Compound I-195, N-((2-hydroxy-4-methoxy-6-methylpyridin-3-yl)methyl)-4-phenoxybenzamide]
